Consider two compounds from article PMC4234447 (Journal of Medicinal Chemistry, 2014).

For one test, the system named is 797 cell line. Kind of test: Cell viability assay. It is filed as cell-based. To be noted: read-out: 797 cellular EC50 (cellular potency).
The target in another test is BRD4 (Homo sapiens, UniProt O60885). Kind of test: AlphaScreen BRD binding assay. To be noted: calculated from BRD4 potency.

Regarding `Cc1sc2c(c1C)C(c1ccc(Cl)cc1)=N[C@@H](CC(=O)OC(C)(C)C)c1nnc(C)n1-2` [Compound 1], the half-maximal effective concentration (EC50) (in general, the concentration needed to bring the measured effect to its halfway point) in the test on 797 cell line is 71.7 nM. As for `Cc1noc(C)c1-c1ccc(C=O)cc1` [Compound 8], the “ligand efficiency (as defined by Hopkins et al.)” value at BRD4 is recorded as 0.54.
